# Reference: PubChem BioAssay (NCI)
#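 Cultured in 96-well plates, cells were exposed to test compound for 48 hours across five concentrations. Here, GI50 denotes the concentration required for 50% inhibition of growth. Definition used: TGI = concentration required for complete inhibition of growth.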
# Experiments:
# Assay in all cases: inhibition of tumour cell growth, NCI panel, 48 h
# NCI-H23 lung = system: NCI-H23 lung
# RPMI-8226 leukemia = system: RPMI-8226 leukemia
# SK-OV-3 ovarian = system: SK-OV-3 ovarian
# HOP-92 NSCLC = system: HOP-92 NSCLC
# NCI-H226 lung = system: NCI-H226 lung
# SF-539 CNS = system: SF-539 CNS
# NCI-H522 lung = system: NCI-H522 lung
# SR leukemia = system: SR leukemia
# K-562 leukemia = system: K-562 leukemia
# MALME-3M melanoma = system: MALME-3M melanoma
# U251 CNS = system: U251 CNS
# SF-268 CNS = system: SF-268 CNS
# SNB-75 CNS = system: SNB-75 CNS
# OVCAR-8 ovarian = system: OVCAR-8 ovarian
# PC-3 prostate = system: PC-3 prostate
# NCI-H460 lung = system: NCI-H460 lung
# HCT-15 colon = system: HCT-15 colon
# HT29 colon = system: HT29 colon
# UO-31 renal = system: UO-31 renal
# CCRF-CEM leukemia = system: CCRF-CEM leukemia
# HL-60(TB) leukemia = system: HL-60(TB) leukemia
# BT-549 breast = system: BT-549 breast
# MDA-MB-435 = system: MDA-MB-435
# ACHN renal = system: ACHN renal
# SK-MEL-5 melanoma = system: SK-MEL-5 melanoma
# CAKI-1 renal = system: CAKI-1 renal
# SNB-19 CNS = system: SNB-19 CNS
# NCI/ADR-RES ovarian = system: NCI/ADR-RES ovarian
# KM12 colon = system: KM12 colon
# EKVX NSCLC = system: EKVX NSCLC
# SK-MEL-28 melanoma = system: SK-MEL-28 melanoma
# DU-145 prostate = system: DU-145 prostate
# HCC-2998 colon = system: HCC-2998 colon
# SW-620 colon = system: SW-620 colon
# HS 578T breast = system: HS 578T breast
# A498 renal = system: A498 renal
# IGROV1 ovarian = system: IGROV1 ovarian
# LOX IMVI melanoma = system: LOX IMVI melanoma
# SK-MEL-2 melanoma = system: SK-MEL-2 melanoma
# MDA-MB-231 breast = system: MDA-MB-231 breast
# COLO 205 colon = system: COLO 205 colon
# A549 NSCLC = system: A549 NSCLC
# MCF7 breast = system: MCF7 breast
# HOP-62 NSCLC = system: HOP-62 NSCLC
# MOLT-4 leukemia = system: MOLT-4 leukemia
# OVCAR-4 ovarian = system: OVCAR-4 ovarian
# 786-0 renal = system: 786-0 renal
# T-47D breast = system: T-47D breast
# UACC-257 melanoma = system: UACC-257 melanoma
# OVCAR-5 ovarian = system: OVCAR-5 ovarian
# SF-295 CNS = system: SF-295 CNS
# RXF 393 renal = system: RXF 393 renal
# HCT-116 colon = system: HCT-116 colon
# TK-10 renal = system: TK-10 renal
# M14 melanoma = system: M14 melanoma
# SN12C renal = system: SN12C renal
# UACC-62 melanoma = system: UACC-62 melanoma
smiles,measurement,setting,value
NS(=O)(=O)c1ccc(Nc2nc(N/N=C/c3ccccn3)nc(Nc3ccccc3)n2)cc1,GI50,NCI-H23 lung,1510 nM
same,TGI,NCI-H23 lung,4430 nM
same,GI50,RPMI-8226 leukemia,2400 nM
same,TGI,RPMI-8226 leukemia,6010 nM
same,GI50,SK-OV-3 ovarian,773 nM
same,TGI,SK-OV-3 ovarian,3920 nM
same,GI50,HOP-92 NSCLC,853 nM
same,TGI,HOP-92 NSCLC,4820 nM
same,GI50,NCI-H226 lung,1070 nM
same,TGI,NCI-H226 lung,5970 nM
same,GI50,SF-539 CNS,683 nM
same,TGI,SF-539 CNS,2530 nM
same,GI50,NCI-H522 lung,431 nM
same,TGI,NCI-H522 lung,3420 nM
same,GI50,SR leukemia,342 nM
same,TGI,SR leukemia,> 100000 nM
same,GI50,K-562 leukemia,433 nM
same,TGI,K-562 leukemia,> 100000 nM
same,GI50,MALME-3M melanoma,1000 nM
same,TGI,MALME-3M melanoma,2510 nM
same,GI50,U251 CNS,514 nM
same,TGI,U251 CNS,> 100000 nM
same,GI50,SF-268 CNS,492 nM
same,TGI,SF-268 CNS,4230 nM
same,GI50,SNB-75 CNS,1210 nM
same,TGI,SNB-75 CNS,2630 nM
same,GI50,OVCAR-8 ovarian,498 nM
same,TGI,OVCAR-8 ovarian,> 100000 nM
same,GI50,PC-3 prostate,665 nM
same,TGI,PC-3 prostate,> 100000 nM
same,GI50,NCI-H460 lung,2430 nM
same,TGI,NCI-H460 lung,6630 nM
same,GI50,HCT-15 colon,1740 nM
same,TGI,HCT-15 colon,> 100000 nM
same,GI50,HT29 colon,1790 nM
same,TGI,HT29 colon,5930 nM
same,GI50,UO-31 renal,1680 nM
same,TGI,UO-31 renal,4910 nM
same,GI50,CCRF-CEM leukemia,395 nM
same,TGI,CCRF-CEM leukemia,> 100000 nM
same,GI50,HL-60(TB) leukemia,709 nM
same,TGI,HL-60(TB) leukemia,> 28900 nM
same,GI50,BT-549 breast,898 nM
same,TGI,BT-549 breast,6920 nM
same,GI50,MDA-MB-435,917 nM
same,TGI,MDA-MB-435,2390 nM
same,GI50,ACHN renal,1960 nM
same,TGI,ACHN renal,5470 nM
same,GI50,SK-MEL-5 melanoma,1020 nM
same,TGI,SK-MEL-5 melanoma,2340 nM
same,GI50,CAKI-1 renal,701 nM
same,TGI,CAKI-1 renal,4890 nM
same,GI50,SNB-19 CNS,947 nM
same,TGI,SNB-19 CNS,> 27400 nM
same,GI50,NCI/ADR-RES ovarian,3080 nM
same,TGI,NCI/ADR-RES ovarian,> 100000 nM
same,GI50,KM12 colon,2190 nM
same,TGI,KM12 colon,5140 nM
same,GI50,EKVX NSCLC,1020 nM
same,TGI,EKVX NSCLC,5300 nM
same,GI50,SK-MEL-28 melanoma,809 nM
same,TGI,SK-MEL-28 melanoma,2300 nM
same,GI50,DU-145 prostate,855 nM
same,TGI,DU-145 prostate,4900 nM
same,GI50,HCC-2998 colon,703 nM
same,TGI,HCC-2998 colon,3480 nM
same,GI50,SW-620 colon,786 nM
same,TGI,SW-620 colon,> 100000 nM
same,GI50,HS 578T breast,1670 nM
same,TGI,HS 578T breast,5970 nM
same,GI50,A498 renal,1570 nM
same,TGI,A498 renal,3180 nM
same,GI50,IGROV1 ovarian,1020 nM
same,TGI,IGROV1 ovarian,5110 nM
same,GI50,LOX IMVI melanoma,657 nM
same,TGI,LOX IMVI melanoma,3480 nM
same,GI50,SK-MEL-2 melanoma,1280 nM
same,TGI,SK-MEL-2 melanoma,2670 nM
same,GI50,MDA-MB-231 breast,620 nM
same,TGI,MDA-MB-231 breast,7060 nM
same,GI50,COLO 205 colon,523 nM
same,TGI,COLO 205 colon,1950 nM
same,GI50,A549 NSCLC,2290 nM
same,TGI,A549 NSCLC,5360 nM
same,GI50,MCF7 breast,1300 nM
same,TGI,MCF7 breast,3240 nM
same,GI50,HOP-62 NSCLC,511 nM
same,TGI,HOP-62 NSCLC,4650 nM
same,GI50,MOLT-4 leukemia,495 nM
same,TGI,MOLT-4 leukemia,> 39700 nM
same,GI50,OVCAR-4 ovarian,460 nM
same,TGI,OVCAR-4 ovarian,2590 nM
same,GI50,786-0 renal,1060 nM
same,TGI,786-0 renal,> 100000 nM
same,GI50,T-47D breast,346 nM
same,TGI,T-47D breast,2730 nM
same,GI50,UACC-257 melanoma,2140 nM
same,TGI,UACC-257 melanoma,5390 nM
same,GI50,OVCAR-5 ovarian,1720 nM
same,TGI,OVCAR-5 ovarian,6610 nM
same,GI50,SF-295 CNS,1720 nM
same,TGI,SF-295 CNS,7100 nM
same,GI50,RXF 393 renal,1240 nM
same,TGI,RXF 393 renal,2910 nM
same,GI50,HCT-116 colon,395 nM
same,TGI,HCT-116 colon,> 100000 nM
same,GI50,TK-10 renal,1100 nM
same,TGI,TK-10 renal,5260 nM
same,GI50,M14 melanoma,1090 nM
same,TGI,M14 melanoma,2480 nM
same,GI50,SN12C renal,1290 nM
same,TGI,SN12C renal,6130 nM
same,GI50,UACC-62 melanoma,788 nM
same,TGI,UACC-62 melanoma,2310 nM
